Data on 35 compounds can be found in patent US20150239889A1, “PYRAZOLOPYRIMIDINE COMPOUND” (MITSUBISHI TANABE PHARMA CORPORATION, priority 2012, published 2015).

In general, IC50 refers to the concentration that inhibits the measured activity by half. Lower therefore signals greater potency.

For one experiment, the target named is T1, human HIF-PHD2 (Homo sapiens, UniProt Q9GZT9).
T1 construct: purchased CrystalGenomics Ltd
Briefly: HIF-PHD inhibition assay (fluorescence polarization), human HIF-PHD2. The class given is biochemical. The conditions noted are these: 2-oxoglutaric acid 3.33 μmol/L. In outline:
(§1)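 Activity was derived as the fluorescence polarization (mP) after enzyme addition minus that measured before enzyme addition. Probe bore a 5′-fluoresceinamide (FAM) label with an aminocaproic acid (ACA) linker.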
On the technique in general: In fluorescence polarisation assays a small probe gives low polarisation when free and higher when bound to something large.

The test system of a further experiment is Hep3B cells. In words: EPO production assay (ELISA of culture supernatant). Type of experiment: cell-based. The note with it: Homo sapiens, 3 μmol/L test compound, 48 hours, relative to control (0.1% DMSO), read-out: EPO production stimulation rate with 3 μmol/L test compound. On the procedure: The stimulatory effect of the compound onEPO production was determined as follows using Hep3B cells.
Cells were seeded on 96 well plates at 40000 cells/well, and the plate was incubated overnight in MEM medium containing 10% fetal bovine serum (FBS) at 37° C. under 5% CO2. The next day, the medium was replaced with MEM containing 0.5% FBS, followed by addition of test compound. The test compound was dissolved in dimethyl sulfoxide and added to the cell so that the final concentration of dimethyl sulfoxide was 0.1%. After incubation for additional 48 hours, the culture supernatant was collected, and EPO contained in the supernatant was determined using ELISA kit (EPO ELISA Kit 11-693-417-001, Roche Co.). The results were expressed as stimulation rate of EPO production (fold), which was calculated as the relative value of the EPO production with 3 μmol/L of the test compound compared to the EPO production without stimulation (control).
Stimulation rate of EPO production (fold)=(EPO production with addition of test compound)/(EPO production of control)

In the next experiment the target is T2, human HIF-PHD3 (Homo sapiens, UniProt Q9H6Z9).
T2 construct: purchased CrystalGenomics Ltd
In words: HIF-PHD inhibition assay (fluorescence polarization), human HIF-PHD3. The class given is biochemical. The conditions noted are these: 2-oxoglutaric acid 166 μmol/L. A digest of the protocol: as §1

T1 sequence (Q9GZT9 2-426 limits assumed): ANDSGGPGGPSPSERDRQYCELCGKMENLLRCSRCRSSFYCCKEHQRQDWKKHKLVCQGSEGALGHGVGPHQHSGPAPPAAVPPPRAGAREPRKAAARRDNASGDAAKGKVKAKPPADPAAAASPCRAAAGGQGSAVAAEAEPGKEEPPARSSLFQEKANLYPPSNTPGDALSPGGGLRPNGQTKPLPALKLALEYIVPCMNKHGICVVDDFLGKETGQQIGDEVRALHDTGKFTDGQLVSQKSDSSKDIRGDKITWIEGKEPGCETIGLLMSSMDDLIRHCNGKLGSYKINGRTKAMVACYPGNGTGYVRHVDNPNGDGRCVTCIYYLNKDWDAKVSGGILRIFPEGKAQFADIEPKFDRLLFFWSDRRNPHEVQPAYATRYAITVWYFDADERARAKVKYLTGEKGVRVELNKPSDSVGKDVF
T2 sequence (Q9H6Z9 whole entry): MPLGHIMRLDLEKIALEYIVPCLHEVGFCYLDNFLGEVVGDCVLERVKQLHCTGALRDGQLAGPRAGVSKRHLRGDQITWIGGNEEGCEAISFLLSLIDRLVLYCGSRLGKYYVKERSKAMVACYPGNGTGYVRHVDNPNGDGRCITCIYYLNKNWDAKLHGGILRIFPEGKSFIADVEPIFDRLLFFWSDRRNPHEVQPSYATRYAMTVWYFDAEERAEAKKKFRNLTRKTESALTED

As to `O=C(O)c1cnn(-c2nc(O)c3c(cnn3CC3CCCCCCC3)n2)c1` [Example 159], the results for the 50% inhibitory concentration (IC50) against human HIF-PHD2 and against human HIF-PHD3 were 110 nM and 380 nM, respectively. For the same compound, the fold induction at 3 µM in the experiment on Hep3B cells came to 4.5.
For `C[C@H]1CC[C@H](Cn2nc(F)c3nc(-n4cc(C(=O)O)cn4)nc(O)c32)CC1` [Example 218], the half-inhibitory concentration (IC50) against human HIF-PHD2 stood at 15 nM; against human HIF-PHD3, 750 nM. Moreover, the fold induction at 3 µM with Hep3B cells was 3.
For `CC1(Cn2ncc3nc(-n4cc(C(=O)O)cn4)nc(O)c32)CCCCC1` [Example 157] the same measures were 40 nM, 720 nM and 4.
For `O=C(O)c1cnn(-c2nc(O)c3c(n2)c(F)nn3C2CCCCC2)c1` [Example 478] the same measures were 45 nM, 370 nM and 1.8.
For `C[C@@H](c1ccc2ccccc2c1)n1ncc2nc(-n3cc(C(=O)O)cn3)nc(O)c21` [Example 31] the same measures were 13 nM, 270 nM and 4.7.
Take `O=C(O)c1cnn(-c2nc(O)c3c(cnn3CCCOc3ccc(Cl)c4c3CCC4)n2)c1` [Example 194]: the half-maximal inhibitory concentration (IC50) came out at 14 nM against human HIF-PHD2 and 53 nM at human HIF-PHD3. In the experiment on Hep3B cells, the fold induction at 3 µM was 18.
In the same order, the values of `O=C(O)c1cnn(-c2nc(O)c3c(cnn3CC3(COc4ccc5c(c4)CCCC5)CC3)n2)c1` [Example 199] are 130 nM, 1100 nM and 5.
For `C[C@@H](c1ccc(Cl)c(Cl)c1)n1nc(F)c2nc(-n3cc(C(=O)O)cn3)nc(O)c21` [Example 440] the same measures were 17 nM, 160 nM and 2.6.
In the same order, the values of `Cc1nn(CC2CCCCCC2)c2c(O)nc(-n3cc(C(=O)O)cn3)nc12` [Example 473] are 48 nM, 1200 nM and 2.
On to `O=C(O)c1cnn(-c2nc(O)c3[nH]ncc3n2)c1` [Example 484], for which the results for the IC50 against human HIF-PHD2 and at human HIF-PHD3 were 35 nM and greater than 1000 nM, respectively. In addition, the fold induction at 3 µM in the experiment on Hep3B cells came out at 1.6.
As to `COc1ccccc1-c1ccc(Cn2ncc3nc(-n4cc(C(=O)O)cn4)nc(O)c32)c(F)c1` [Example 85], the values for the concentration for half-maximal inhibition (IC50) against human HIF-PHD2 and against human HIF-PHD3 were 11 nM and 66 nM, respectively. Further, the fold induction at 3 µM with Hep3B cells was determined as 4.
In the same order, the values of `O=C(O)c1cnn(-c2nc(O)c3c(cnn3CC3(COc4ccc(Cl)cc4)CC3)n2)c1` [Example 198] are 89 nM, 1200 nM and 3.2.
For `Cc1nn([C@@H](C)c2ccc(Cl)c(Cl)c2)c2c(O)nc(-n3cc(C(=O)O)cn3)nc12` [Example 447], the IC50 was determined as 20 nM against human HIF-PHD2 and 560 nM at human HIF-PHD3. In addition, the fold induction at 3 µM with Hep3B cells came out at 5.4.
In the same order, the values of `C[C@@H](c1ccc(Cl)cc1)n1ncc2nc(-n3cc(C(=O)O)cn3)nc(O)c21` [Example 21] are 17 nM, 520 nM and 7.5.
For `O=C(O)c1cnn(-c2nc(O)c3c(cnn3CCC3CCCCC3)n2)c1` [Example 160] the same measures were 71 nM, 380 nM and 3.6.
In the same order, the values of `O=C(O)c1cnn(-c2nc(O)c3c(cnn3CCc3ccc(-c4ccccc4)cc3)n2)c1` [Example 130] are 6 nM, 130 nM and 19.
On to `O=C(O)c1cnn(-c2nc(O)c3c(cnn3CCC3CCN(c4ccc(C(F)(F)F)cc4)CC3)n2)c1` [Example 172], for which the IC50 amounted to 34 nM at human HIF-PHD2 and 250 nM on human HIF-PHD3. In addition, the fold induction at 3 µM with Hep3B cells is 19.
`O=C(O)c1cnn(-c2nc3cn(Cc4ccc(-c5ccccc5)cc4)nc3c(=O)[nH]2)c1` [Example 237]: in the experiment on Hep3B cells, the fold induction at 3 µM was 4.3. Also, half-maximal inhibition at human HIF-PHD3 (IC50) required 38 nM.
At human HIF-PHD2, `Cc1ccc(C(C)(C)Cn2ncc3nc(-n4cc(C(=O)O)cn4)nc(O)c32)cc1` [Example 119] displayed an IC50 of 240 nM. In addition, the fold induction at 3 µM in the experiment on Hep3B cells was found to be 3.7.
For `Cc1nn(CC2CCCCC2)c2c(O)nc(-n3cc(C(=O)O)cn3)nc12` [Example 230] the same measures were 83 nM and 2.
`O=C(O)c1cnn(-c2nc3cnn(Cc4ccc(Cl)c(Cl)c4)c3c(=O)[nH]2)c1` [Example 1, 1-[1-(3,4-dichlorobenzyl)-7-hydroxy-1H-pyrazolo[4,3-d]pyrimidin-5-yl]-1H-pyrazole-4-carboxylic acid]: the fold induction at 3 µM in the experiment on Hep3B cells was 4.6. On human HIF-PHD3, the midpoint of inhibition, the IC50, lay at 160 nM.
Turning to `O=C(O)c1cnn(-c2nc3cnn(Cc4ccc(-c5ccccc5)cc4)c3c(=O)[nH]2)c1` [Example 55], in the experiment on Hep3B cells, the fold induction at 3 µM was determined as 34. On human HIF-PHD3, the half-maximal inhibitory concentration (IC50) was 24 nM.
As for `C[C@H](c1ccc(Cl)c(Cl)c1)n1ncc2nc(-n3cc(C(=O)O)cn3)nc(O)c21` [Example 22], the fold induction at 3 µM in the experiment with Hep3B cells came to 6.9. Also, inhibition against human HIF-PHD3 was half-maximal at 540 nM (IC50).
For `C[C@@H](c1ccc(Cl)c(Cl)c1)n1ncc2nc(-n3cc(C(=O)O)cn3)nc(O)c21` [Example 23] the same measures were 3.2 and 220 nM.
In the same order, the values of `O=C(O)c1cnn(-c2nc3cnn(Cc4ccc(-c5ccccc5F)c(F)c4)c3c(=O)[nH]2)c1` [Example 93] are 23 and 130 nM.
On to `CCC1CCCC(n2ncc3nc(-n4cc(C(=O)O)cn4)nc(O)c32)C1` (single isomer, unassigned) [Example 414], for which the IC50 stood at 33 nM on human HIF-PHD2 and 820 nM against human HIF-PHD3.
In the same order, the values of `Cc1c(OCCCn2ncc3nc(-n4cc(C(=O)O)cn4)nc(O)c32)ccc2c1CCCC2` [Example 190] are 14 nM and 260 nM.
In the same order, the values of `C[C@@H](c1cccc(F)c1)n1nc(C2CC2)c2nc(-n3cc(C(=O)O)cn3)nc(O)c21` [Example 458] are greater than 300 nM and 1100 nM.
In the same order, the values of `Cc1ccc(C(C)n2ncc3nc(-n4cc(C(=O)O)cn4)nc(O)c32)cc1F` (stereo not drawn) [Example 295] are 64 nM and 700 nM.
As for `CC(C)(C)[C@H]1CC[C@H](Cn2nc(Cl)c3nc(-n4cc(C(=O)O)cn4)nc(O)c32)CC1` [Example 225], the IC50 against human HIF-PHD2 worked out at 22 nM; against human HIF-PHD3, 150 nM.
For `C[C@H](c1ccc(C(F)(F)F)cc1)n1ncc2nc(-n3cc(C(=O)O)cn3)nc(O)c21` [Example 284] the same measures were 150 nM and 830 nM.
In the same order, the values of `CC(C)[C@H]1CC[C@@H](n2ncc3nc(-n4cc(C(=O)O)cn4)nc(O)c32)CC1` [Example 390] are 28 nM and 660 nM.
For `CC(C)C(c1ccc(F)c(F)c1)n1ncc2nc(-n3cc(C(=O)O)cn3)nc(O)c21` (stereo not drawn) [Example 358] the same measures were 45 nM and 700 nM.
Consider `CCC(c1cc(F)cc(F)c1)n1ncc2nc(-n3cc(C(=O)O)cn3)nc(O)c21` (single isomer, unassigned) [Example 333], for which the IC50 was 46 nM against human HIF-PHD2 and 320 nM against human HIF-PHD3.
For `CCC(c1ccc(F)cc1)n1ncc2nc(-n3cc(C(=O)O)cn3)nc(O)c21` (single isomer, unassigned) [Example 325] the same measures were 36 nM and 630 nM.
